{"source": "ChEMBL document CHEMBL3885861", "about": "“Open TG-GATES”", "organism": "Rattus norvegicus", "assay": "Open TG-GATES - Regimen: Daily Repeat", "assay_type": "toxicity, organism-based, Sprague-Dawley", "set-up": "regimen Daily Repeat, gender Male, age 6 weeks", "conditions": "in vivo, po, 15 mg/kg, route gavage, dose level Low; for APTT / Bas / Eos / Fbg / Hb / Ht / Lym / MCH / MCHC / MCV / Mono / Neu / PT / Plat / RBC / Ret / WBC: tissue Blood", "key": {"[1]": {"conditions": "72 h, tissue Kidney, time 3 day"}, "[2]": {"conditions": "72 h, tissue Plasma, time 3 day"}}}
{"smiles": "Oc1ncnc2[nH]ncc12", "note": "[ALLOPURINOL]", "values": [{"measurement": "TERMINAL_BW", "setting": "72 h, time 3 day", "value": 242.3, "unit": "g"}, {"measurement": "APTT", "setting": "72 h, time 3 day", "value": 16.5, "unit": "s"}, {"measurement": "Bas", "setting": "72 h, time 3 day", "value": 0, "unit": "%"}, {"measurement": "Eos", "setting": "72 h, time 3 day", "value": 0.8, "unit": "%"}, {"measurement": "Fbg", "setting": "72 h, time 3 day", "value": 229.2, "unit": "mg/dL"}, {"measurement": "Hb", "setting": "72 h, time 3 day", "value": 13.9, "unit": "g/dL"}, {"measurement": "Ht", "setting": "72 h, time 3 day", "value": 41.8, "unit": "%"}, {"measurement": "Lym", "setting": "72 h, time 3 day", "value": 81.2, "unit": "%"}, {"measurement": "MCH", "setting": "72 h, time 3 day", "value": 21.5, "unit": "pg"}, {"measurement": "MCHC", "setting": "72 h, time 3 day", "value": 33.3, "unit": "%"}, {"measurement": "MCV", "setting": "72 h, time 3 day", "value": 64.8, "unit": "fL"}, {"measurement": "Mono", "setting": "72 h, time 3 day", "value": 6, "unit": "%"}, {"measurement": "Neu", "setting": "72 h, time 3 day", "value": 11.4, "unit": "%"}, {"measurement": "PT", "setting": "72 h, time 3 day", "value": 12.1, "unit": "s"}, {"measurement": "Plat", "setting": "72 h, time 3 day", "value": 91.2, "unit": "x10_4/uL"}, {"measurement": "RBC", "setting": "72 h, time 3 day", "value": 646.4, "unit": "x10_4/ul"}, {"measurement": "Ret", "setting": "72 h, time 3 day", "value": 7, "unit": "%"}, {"measurement": "WBC", "setting": "72 h, time 3 day", "value": 93.9, "unit": "x10_2/uL"}, {"measurement": "KIDNEY_L", "setting": "[1]", "value": 1, "unit": "g"}, {"measurement": "KIDNEY_R", "setting": "[1]", "value": 1, "unit": "g"}, {"measurement": "KIDNEY_TOTAL", "setting": "[1]", "value": 2.1, "unit": "g"}, {"measurement": "LIVER", "setting": "72 h, tissue Liver, time 3 day", "value": 11.7, "unit": "g"}, {"measurement": "ALT", "setting": "[2]", "value": 33.4, "unit": "IU/L"}, {"measurement": "AST", "setting": "[2]", "value": 67.4, "unit": "IU/L"}, {"measurement": "BUN", "setting": "[2]", "value": 18.4, "unit": "mg/dL"}, {"measurement": "CRE", "setting": "[2]", "value": 0.5, "unit": "mg/dL"}, {"measurement": "Ca", "setting": "[2]", "value": 11.3, "unit": "mg/dL"}, {"measurement": "DBIL", "setting": "[2]", "value": 0.002, "unit": "mg/dL"}, {"measurement": "GLC", "setting": "[2]", "value": 193, "unit": "mg/dL"}, {"measurement": "IP", "setting": "[2]", "value": 8.4, "unit": "mg/dL"}, {"measurement": "K", "setting": "[2]", "value": 4.8, "unit": "meq/L"}, {"measurement": "LDH", "setting": "[2]", "value": 85.2, "unit": "IU/L"}, {"measurement": "Na", "setting": "[2]", "value": 139.2, "unit": "meq/L"}, {"measurement": "PL", "setting": "[2]", "value": 162.4, "unit": "mg/dL"}, {"measurement": "RALB", "setting": "[2]", "value": 3.9, "unit": "g/dL"}, {"measurement": "TBIL", "setting": "[2]", "value": 0.3, "unit": "mg/dL"}, {"measurement": "TC", "setting": "[2]", "value": 81.4, "unit": "mg/dL"}, {"measurement": "TG", "setting": "[2]", "value": 111, "unit": "mg/dL"}, {"measurement": "TP", "setting": "[2]", "value": 6.1, "unit": "g/dL"}, {"measurement": "gamma-GTP", "setting": "[2]", "value": 1.6, "unit": "IU/L"}, {"measurement": "TERMINAL_BW", "setting": "[…], time 7 day", "value": 256.8, "unit": "g"}, {"measurement": "TERMINAL_BW", "setting": "[…], time 14 day", "value": 323.2, "unit": "g"}, {"measurement": "TERMINAL_BW", "setting": "[…], time 28 day", "value": 383.9, "unit": "g"}, {"measurement": "APTT", "setting": "[…], time 7 day", "value": 16.7, "unit": "s"}, {"measurement": "Bas", "setting": "[…], time 7 day", "value": 0, "unit": "%"}, {"measurement": "Eos", "setting": "[…], time 7 day", "value": 1, "unit": "%"}, {"measurement": "Fbg", "setting": "[…], time 7 day", "value": 246.6, "unit": "mg/dL"}, {"measurement": "Hb", "setting": "[…], time 7 day", "value": 14.8, "unit": "g/dL"}, {"measurement": "Ht", "setting": "[…], time 7 day", "value": 44.6, "unit": "%"}, {"measurement": "Lym", "setting": "[…], time 7 day", "value": 83.2, "unit": "%"}, {"measurement": "MCH", "setting": "[…], time 7 day", "value": 21.1, "unit": "pg"}, {"measurement": "MCHC", "setting": "[…], time 7 day", "value": 33.2, "unit": "%"}, {"measurement": "MCV", "setting": "[…], time 7 day", "value": 63.5, "unit": "fL"}, {"measurement": "Mono", "setting": "[…], time 7 day", "value": 3.4, "unit": "%"}, {"measurement": "Neu", "setting": "[…], time 7 day", "value": 12.6, "unit": "%"}, {"measurement": "PT", "setting": "[…], time 7 day", "value": 11.8, "unit": "s"}, {"measurement": "Plat", "setting": "[…], time 7 day", "value": 112.6, "unit": "x10_4/uL"}, {"measurement": "RBC", "setting": "[…], time 7 day", "value": 702.2, "unit": "x10_4/ul"}, {"measurement": "Ret", "setting": "[…], time 7 day", "value": 4.6, "unit": "%"}, {"measurement": "WBC", "setting": "[…], time 7 day", "value": 108.6, "unit": "x10_2/uL"}, {"measurement": "APTT", "setting": "[…], time 14 day", "value": 16.8, "unit": "s"}, {"measurement": "Bas", "setting": "[…], time 14 day", "value": 0, "unit": "%"}, {"measurement": "Eos", "setting": "[…], time 14 day", "value": 0.8, "unit": "%"}, {"measurement": "Fbg", "setting": "[…], time 14 day", "value": 242.8, "unit": "mg/dL"}, {"measurement": "Hb", "setting": "[…], time 14 day", "value": 14.6, "unit": "g/dL"}, {"measurement": "Ht", "setting": "[…], time 14 day", "value": 44, "unit": "%"}, {"measurement": "Lym", "setting": "[…], time 14 day", "value": 81, "unit": "%"}, {"measurement": "MCH", "setting": "[…], time 14 day", "value": 20.5, "unit": "pg"}, {"measurement": "MCHC", "setting": "[…], time 14 day", "value": 33.2, "unit": "%"}, {"measurement": "MCV", "setting": "[…], time 14 day", "value": 61.7, "unit": "fL"}, {"measurement": "Mono", "setting": "[…], time 14 day", "value": 4.8, "unit": "%"}, {"measurement": "Neu", "setting": "[…], time 14 day", "value": 13.4, "unit": "%"}, {"measurement": "PT", "setting": "[…], time 14 day", "value": 11.7, "unit": "s"}, {"measurement": "Plat", "setting": "[…], time 14 day", "value": 111.9, "unit": "x10_4/uL"}, {"measurement": "RBC", "setting": "[…], time 14 day", "value": 714, "unit": "x10_4/ul"}, {"measurement": "Ret", "setting": "[…], time 14 day", "value": 4.4, "unit": "%"}, {"measurement": "APTT", "setting": "[…], time 28 day", "value": 16.6, "unit": "s"}, {"measurement": "Bas", "setting": "[…], time 28 day", "value": 0, "unit": "%"}, {"measurement": "Eos", "setting": "[…], time 28 day", "value": 1, "unit": "%"}, {"measurement": "Fbg", "setting": "[…], time 28 day", "value": 225.8, "unit": "mg/dL"}]}
